Read-outs that look alike come from different tables or passages of the source.
Key:
[1] = target: T1, Human PXR (Homo sapiens, UniProt O75469)
T1 sequence (O75469 107-434): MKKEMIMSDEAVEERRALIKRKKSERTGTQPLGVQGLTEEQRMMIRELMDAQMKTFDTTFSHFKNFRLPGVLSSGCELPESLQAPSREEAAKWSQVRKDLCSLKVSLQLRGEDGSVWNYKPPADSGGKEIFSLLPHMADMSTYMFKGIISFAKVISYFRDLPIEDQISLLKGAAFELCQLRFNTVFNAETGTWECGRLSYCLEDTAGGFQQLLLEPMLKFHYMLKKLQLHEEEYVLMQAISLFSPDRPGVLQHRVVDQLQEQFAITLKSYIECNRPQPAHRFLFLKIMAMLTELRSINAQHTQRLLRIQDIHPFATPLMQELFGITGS

[2] = test system: Polar bear PXR; conditions: for Polar bear PXR Relative activation (%): maximum response as percentage of the maximum response to rifampicin; for Relative max induction (polar bear vs human): ratio of maximum induction via pbPXR to hPXR
[3] = target: T1, Human PXR; conditions: maximum response as percentage of the maximum response to rifampicin
[4] = test system: Polar bear PXR
[5] = target: T1, Human PXR; test: in vitro
[6] = test system: polar bear PXR; test: in vitro

Compound | Polar bear PXR Relative activation (%) [2] | Relative max induction (polar bear vs human) [2] | Human PXR Relative activation (%) [3] | fold induction [5] | fold induction [6] | also measured
Brc1ccc(Oc2ccc(Br)cc2Br)c(Br)c1 [BDE 47] | 16% | 0.3 | 59% | – | – | Human PXR RECh20 [1]: 5 µM
Clc1ccc(-c2cc(Cl)c(Cl)cc2Cl)cc1Cl [PCB 118] | 14% | 0.6 | 25% | – | – | Human PXR RECh20 [1]: 34 µM
Clc1ccc(-c2ccc(Cl)cc2Cl)cc1 [PCB 28] | 12% | 0.6 | 19% | – | – | –
Clc1ccc(Cl)c(-c2cc(Cl)ccc2Cl)c1 [PCB 52] | 10% | 0.9 | 11% | – | – | –
O=c1cc(-c2ccccc2)oc2ccc3ccccc3c12 [β-naphtoflavone (BNF), β-naphtoflavone, reference compound] | 21% | 0.8 | 28% | – | – | Polar bear PXR RECh20 [4]: 0.69 µM; Human PXR RECh20 [1]: 0.069 µM
Clc1ccc(C(c2ccc(Cl)cc2)C(Cl)(Cl)Cl)cc1 [4,4′-DDT, Dichlorodiphenyltrichloroethane] | 42% | 0.8 | 53% | – | – | Polar bear PXR RECh20 [4]: 11 µM; Human PXR RECh20 [1]: 9.3 µM
Brc1ccc(Oc2ccc(Br)cc2Br)cc1 [BDE 28] | 9% | 0.3 | 31% | – | – | Human PXR RECh20 [1]: 11 µM
Clc1ccc(-c2ccc(Cl)c(Cl)c2Cl)cc1 [PCB 60] | 8% | 0.7 | 10% | – | – | –
Clc1ccc(Cl)c(-c2c(Cl)c(Cl)cc(Cl)c2Cl)c1 [PCB 151] | 15% | 0.2 | 72% | – | – | –
Brc1c(Br)c(Br)c(Oc2c(Br)c(Br)c(Br)c(Br)c2Br)c(Br)c1Br [BDE 209] | 19% | 0.7 | 26% | – | – | Human PXR RECh20 [1]: 16 µM
Clc1ccccc1C(c1ccccc1)(c1ccccc1)n1ccnc1 [Clotrimazole, reference compound] | – | – | – | – | – | Polar bear PXR RECh20 ([4]; polar bear): 0.63 µM
C[Si]1(C)O[Si](C)(C)O[Si](C)(C)O[Si](C)(C)O1 [Octamethylcyclotetrasiloxane (D4), Octamethylcyclotetrasiloxane] | 11% | 0.3 | 44% | 4.3 ± 0.3 | 1.1 ± 0.4 | –
O=C(O)C(F)(F)C(F)(F)C(F)(F)C(F)(F)C(F)(F)C(F)(F)C(F)(F)C(F)(F)F [Perfluorononanoic acid (PFNA), Perfluorononanoic acid] | 10% | 0.9 | 11% | – | – | –
Clc1ccc(-c2cc(Cl)c(Cl)c(Cl)c2Cl)c(Cl)c1Cl [PCB 170] | 15% | 0.6 | 24% | – | – | –
CO[C@H]1/C=C/O[C@@]2(C)Oc3c(C)c(O)c4c(O)c(c(/C=N/N5CCN(C)CC5)c(O)c4c3C2=O)NC(=O)/C(C)=C\C=C\[C@H](C)[C@H](O)[C@@H](C)[C@@H](O)[C@@H](C)[C@H](OC(C)=O)[C@@H]1C [Rifampicin, reference compound] | – | – | – | – | – | Polar bear PXR RECh20 ([4]; polar bear): 1.1 µM; Human PXR RECh20 ([1]; human): 0.46 µM
Cl[C@H]1[C@H](Cl)[C@H](Cl)[C@@H](Cl)[C@H](Cl)[C@H]1Cl [α-hexachlorocyclohexane (α-HCH), α-hexachlorocyclohexane] | 13% | 0.2 | 57% | 5.6 ± 1.5 | 1.3 ± 0.8 | Human PXR RECh20 ([1]; human): 3.8 µM
CC(=O)N1CCN(c2ccc(OCC3COC(Cn4ccnc4)(c4ccc(Cl)cc4Cl)O3)cc2)CC1 (centres unmarked) [Ketoconazole, reference compound] | – | – | – | 2.7 ± 0.5 | 0.9 ± 0.1 | Polar bear PXR Relative activation (%) ([4]; polar bear): 9%; Relative max induction (polar bear vs human) ([4]; polar bear and human): 0.3; Human PXR RECh20 ([1]; human): 13 µM; Human PXR Relative activation (%) ([1]; human): 28%
Clc1cc(Cl)c(-c2c(Cl)cc(Cl)c(Cl)c2Cl)cc1Cl [PCB 183] | 31% | 1.1 | 28% | – | – | –

Compound | Polar bear PXR Relative activation (%) [2] | Relative max induction (polar bear vs human) [2] | Human PXR Relative activation (%) [3] | fold induction [5] | fold induction [6] | also measured
Clc1cc(Cl)c(-c2c(Cl)cc(Cl)c(Cl)c2Cl)c(Cl)c1 [PCB 184] | 19% | 0.6 | 33% | – | – | –
Clc1ccc(-c2c(Cl)c(Cl)c(Cl)c(Cl)c2Cl)cc1Cl [PCB 190] | 18% | 0.4 | 46% | – | – | –
Clc1cccc(Cl)c1Cl [1,2,3-trichlorobenzene (1,2,3-TCB), 1,2,3-trichlorobenzene] | 9% | 0.9 | 9% | 0.9 ± 0.1 | 0.9 ± 0.3 | –
Brc1ccc(Oc2c(Br)cc(Br)cc2Br)c(Br)c1 [BDE 100] | 14% | 0.4 | 39% | 3.8 ± 0.3 | 1.3 ± 0.2 | Human PXR RECh20 ([1]; human): 6.6 µM
Hexabromocyclododecane [HBCD technical mixture] | – | – | – | – | – | Polar bear PXR RECh20 [4]: 1.7 µM
Brc1cc(Br)c(Oc2cc(Br)c(Br)cc2Br)cc1Br [BDE 153] | 17% | 0.4 | 45% | 4.4 ± 0.2 | 1.7 ± 0.1 | Human PXR RECh20 ([1]; human): 3.9 µM
NC(=O)N1c2ccccc2C=Cc2ccccc21 [Carbamazepine, reference compound] | – | – | – | 2.3 ± 0.3 | 1.4 ± 0.3 | Polar bear PXR Relative activation (%) ([4]; polar bear): 14%; Relative max induction (polar bear vs human) ([4]; polar bear and human): 0.6; Human PXR RECh20 ([1]; human): 13 µM; Human PXR Relative activation (%) ([1]; human): 23%
CC(C)(c1cc(Br)c(O)c(Br)c1)c1cc(Br)c(O)c(Br)c1 [Tetrabromobisphenol A (TBBPA), Tetrabromobisphenol A] | – | – | – | – | – | Polar bear PXR RECh20 [4]: 35 µM; Polar bear PXR Relative activation (%) [4]: 39%; Relative max induction (polar bear vs human) [4]: 1.2; Human PXR RECh20 [1]: 29 µM; Human PXR Relative activation (%) [1]: 32%
Clc1ccc(Cl)c(-c2cc(Cl)c(Cl)cc2Cl)c1 [PCB 101] | 19% | 0.6 | 34% | – | – | –
Oc1c(Cl)c(Cl)c(Cl)c(Cl)c1Cl [Pentachlorophenol] | – | – | 11% | 1 ± 0.2 | 0.9 ± 0.3 | Polar bear PXR Relative activation (%) ([4]; polar bear): 9%; Relative max induction (polar bear vs human) ([4]; polar bear and human): 0.9
C[Si]1(C)O[Si](C)(C)O[Si](C)(C)O[Si](C)(C)O[Si](C)(C)O1 [Decamethylcyclopentasiloxane (D5), Decamethylcyclopentasiloxane] | 16% | 0.7 | 22% | 2.2 ± 0.2 | 1.6 ± 0.2 | Human PXR RECh20 ([1]; human): 35 µM
Brc1ccc(Oc2cc(Br)c(Br)cc2Br)c(Br)c1 [BDE 99] | 16% | 0.3 | 52% | – | – | Human PXR RECh20 [1]: 4.8 µM
Clc1cc(Cl)c(-c2ccc(Cl)c(Cl)c2Cl)cc1Cl [PCB 138] | 11% | 0.9 | 12% | – | – | –
Clc1ccc(-c2ccc(Cl)cc2Cl)c(Cl)c1 [PCB 47] | 14% | 0.5 | 27% | – | – | –
C=CC1(C)OC(=O)N(c2cc(Cl)cc(Cl)c2)C1=O (centres unmarked) [Vinclozolin] | 11% | 0.3 | 38% | 3.7 ± 0.2 | 1.1 ± 0.2 | Human PXR RECh20 ([1]; human): 44 µM
Clc1cc(Cl)c(-c2cccc(Cl)c2Cl)cc1Cl [PCB 97] | 28% | 1.1 | 25% | – | – | –
Clc1ccc(Cl)c(Cl)c1 [1,2,4-trichlorobenzene (1,2,4-TCB), 1,2,4-trichlorobenzene] | 9% | 0.9 | 10% | 1 ± 0.1 | 0.9 ± 0.3 | –

From PMC4387200 (Toxicology and applied pharmacology, 2015)
